{"source": "patent US20240350575A1", "about": "“PLANT EXTRACT FOR ALLEVATING PULMONARY FIBROSIS, AND PREPARATION METHOD AND USE THEREOF” (Guangdong GreenTech Lemon Innovations Co., Ltd., priority 2023, published 2024)", "type_in_all_cases": "in vivo, SD rats", "key": {"[1]": {"test_system": "rat models of pulmonary fibrosis", "assay": "Body weight in bleomycin-induced rat models of pulmonary fibrosis", "source_text": "(§1) The present experimental example explored the influence of the plant extract solution prepared in Embodiments 1-3 on the body weight and lung coefficient of rats. The method was as follows:\n(§2) 80 healthy SD rats including half males and half females with a body weight of 230 g±10 g were selected and divided into a blank group, a model group, embodiment group 1, embodiment group 2, embodiment group 3, comparative example group 1, comparative example group 2 and a positive control group, each group consisting of 10 rats. After the rats in each group were raised regularly for one week, each rat was intraperitoneally injected with 4% chloral hydrate at an injection dose of 10 ml/kg. The anesthetized rats were fixed in a supine position, and the rat necks were subjected to hair removal, disinfected with iodine alcohol, and longitudinally cut to expose tracheas. Except for the blank group, the rats in each group were pierced with an injector by 1 cm toward the heart through a gap between two tracheal cartilage rings, and after resistance-free withdrawal, bleomycin was injected into the trachea at a dose of 5 mg/kg. The blank group was injected with an equal volume of normal saline. Immediately after injection, the rats were rotated upright for 5 min to fully distribute the medicament in the lungs. Various layers of tissues were sutured, and local alcohol disinfection was performed. 24 hours after modeling, the rats in the blank group and the model group were intragastrically administered with normal saline at a dose of 5 mL/kg every day, the rats in the positive control group were intragastrically administered with prednisone acetate at a dose of 5 mL/kg every day, and the rats in embodiment groups 1-3 and comparative example groups 1-2 were intragastrically administered with corresponding plant extract at a dose of 5 mL/kg continuously for 28 d. During this period, the rats in each group were raised according to a conventional method.\n(1) Body weight: weighed the rats in each group on the day of intragastric administration, and weighed the rats in each group every 7 d."}, "[2]": {"test_system": "rat models of pulmonary fibrosis", "assay": "Lung coefficient in bleomycin-induced rat models of pulmonary fibrosis", "conditions": "wet lung weight/body weight x100%, bleomycin rats, intragastric 5 mL/kg daily", "source_text": "as §1\nas §2, with “24 hours after modeling, the rats in the blank group and the model group were intragastrically administered with normal saline at a dose of 5 mL/kg every day, the rats in the positive control group were intragastrically administered with prednisone acetate at a dose of 5 mL/kg every day, and the rats in embodiment groups 1-3 and comparative example groups 1-2 were intragastrically administered with corresponding plant extract at a dose of 5 mL/kg continuously for 28 d. During this period, the rats in each group were raised according to a conventional method.” left out"}, "[3]": {"test_system": "rat models of pulmonary fibrosis", "assay": "Hydroxyproline content in lung tissues of rat models of pulmonary fibrosis", "conditions": "lung tissue, bleomycin rats, after intragastric administration 5 mL/kg daily for 28 d", "method": "as §2, with “24 hours after modeling, the rats in the blank group and the model group were intragastrically administered with normal saline at a dose of 5 mL/kg every day, the rats in the positive control group were intragastrically administered with prednisone acetate at a dose of 5 mL/kg every day, and the rats in embodiment groups 1-3 and comparative example groups 1-2 were intragastrically administered with corresponding plant extract at a dose of 5 mL/kg continuously for 28 d. During this period, the rats in each group were raised according to a conventional method.” left out"}}, "data": [{"smiles": "CC(=O)OCC(=O)[C@@]1(O)CC[C@H]2[C@@H]3CCC4=CC(=O)C=C[C@]4(C)[C@H]3C(=O)C[C@@]21C", "note": "[Positive control group, prednisone acetate]", "values": [{"measurement": "Initial weight", "setting": "[1]; baseline, day of first intragastric administration, 24 h after bleomycin 5 mg/kg intratracheal", "value": 228.1, "unit": "g"}, {"measurement": "Weight on the 7th day", "setting": "[1]; bleomycin rats, intragastric 5 mL/kg daily, day 7", "value": 253.2, "unit": "g"}, {"measurement": "Weight on the 14th day", "setting": "[1]; bleomycin rats, intragastric 5 mL/kg daily, day 14", "value": 260.7, "unit": "g"}, {"measurement": "Weight on the 21st day", "setting": "[1]; bleomycin rats, intragastric 5 mL/kg daily, day 21", "value": 267.6, "unit": "g"}, {"measurement": "Weight on the 28th day", "setting": "[1]; bleomycin rats, intragastric 5 mL/kg daily, day 28", "value": 273.2, "unit": "g"}, {"measurement": "Lung coefficient on the 14th day", "setting": "[2]; day 14", "value": 0.568, "unit": "%"}, {"measurement": "Lung coefficient on the 28th day", "setting": "[2]; day 28", "value": 0.594, "unit": "%"}, {"measurement": "Hydroxyproline content", "setting": "[3]", "value": 0.847, "unit": "µg/mg"}]}]}
